The structures appear in SMILES notation.

Experimental findings from patent US20260115202A1, “TOPICAL COMPOSITIONS COMPRISING AN ESTETROL COMPONENT AND USE OF SAID COMPOSITIONS FOR WOUND HEALING” (NEURALIS SA, priority 2022, published 2026) are described below.

The subject of assay [1] is murine dermal fibroblasts (MDFs). The assay can be described thus: Scratch wound assay, murine dermal fibroblasts. The assay is classed as cell-based, mouse. The following applies: MDF, 24 hours, versus vehicle control. The source says:
(§1) Primary human dermal fibroblasts (HDF) were isolated from abdominal skin or leg skin. Primary neonatal normal human epidermal keratinocytes (NHEK) were purchased (Lonza). Murine dermal fibroblasts (MDF), murine epidermal keratinocytes (MEK), murine peritoneal macrophages and murine bone marrow were isolated from C57/B16 (wt). NDb (Lepr+/−) or Db (Lepr−/−) mice.
Fibroblasts were isolated and cultured in DMEM supplemented with 10% heat inactivated FBS. 1% penicillin/streptomycin and 1% amphotericin B. At least 4 days prior to performing assays cells were switched to DMEM supplemented with 5% charcoal-stripped FBS.
Cells were seeded into 24 well plates and cultured to form a confluent monolayer, and then scratched with a 1 ml pipette tip. Wells were treated with E2, E4 and/or various estrogen receptor agonists and antagonists. […] A vehicle control containing the equivalent concentration of EtOH and/or DMSO was included, in addition to an untreated negative control. All treatments were diluted to working concentrations in media supplemented with 2% charcoal-stripped FBS. To visualise scratches at the defined endpoint, cells were stained with crystal violet and imaged on a Nikon E400 brightfield microscope. Scratch closure was determined from multiple independent measurements per well.

Assay [2] has as its system normal human epidermal keratinocytes (NHEKs). The assay can be described thus: Scratch wound assay, normal human epidermal keratinocytes. It counts as cell-based. The following applies: NHEK, 10^−7/10^−8 M range, 15% and 30% HKGS, 24 hours. The method, then:
as §1
(§2) Neonatal HEK were cultured in EpiLife supplemented with […] human keratinocyte growth supplements (HKGS) and 1% penicillin/streptomycin. MEK were cultured in CnT basal medium supplemented with 1% penicillin/streptomycin and 1% amphotericin B.
Cells were seeded into 24 well plates and cultured to form a confluent monolayer, and then scratched with a 1 ml pipette tip. Wells were treated with E2, E4 and/or various estrogen receptor agonists and antagonists. […] A vehicle control containing the equivalent concentration of EtOH and/or DMSO was included, in addition to an untreated negative control. All treatments were diluted to working concentrations in media supplemented with 2% charcoal-stripped FBS. […] Scratch closure was determined from multiple independent measurements per well.
The effects of E2 and E4 on keratinocyte migration where evaluated using primary normal human epidermal keratinocytes (NHEKs).

Assay [3] concerns primary mouse epidermal keratinocytes (MEKs). The assay is described as follows: qPCR gene expression in primary mouse epidermal keratinocytes. The following applies: MEK; for expression of EMT marker Snail: 10^−7M; for expression of ERα and ERβ: particularly at 10^−7M, 24 hours, not statistically significant. The assay is classed as cell-based. The method, then: as §1, §2
Following treatments, human and murine macrophages were collected in Trizol and RNA isolated using the Trizol plus RNA isolation kit (Invitrogen. Thermo Fisher) according to the manufacturer's instructions. RNA was reverse transcribed to cDNA using GoScript reverse transcriptase (Promega). Quantitative real-time PCR was carried out using 2×Takyon SYBR Green mastermix and a CFX Connect thermocycler. Primers for ERα and ERβ were used to explore changes in ER expression after treatment of MEK and MDF with E2 and E4. To investigate the effect of E2 and E4 on MEK differentiation and the expression of ECM proteins by MDF, primers for. Snail, keratin-1 and fibronectin, collagen I. MMP-2 and MMP-9 were used. Primers for INOS. IL-1B and Tnf-α or Ccl17 were used to assess M1/M2 polarisation status. Primers for GAPDH were used to normalise data. Relative gene expression was set to vehicle controls or M0 expression unless otherwise stated.
Next, we switched to primary mouse epidermal keratinocytes (MEKs) to explore the effect of E2 and E4 on MEK wound-relevant gene expression. […] Snail, following treatment with either E2 or E4 at 10^−7M. […] In general, the observed effects of E2 and E4 on gene expression were reversed by co-treatment with the ER antagonist ICI.
A general note: In qPCR the cycle at which signal appears reflects the starting amount.

The subject of assay [4] is THP1 cells. The assay can be described thus: THP1 macrophage polarisation, qPCR of M1/M2 markers. The following applies: range of concentrations; for expression of Tnf-α (M1 marker): M1 polarised THP1 cells; for expression of CCL17 (M2 marker): M2 polarised THP1 cells. It counts as cell-based, human. The method, then: THP1 cells were maintained in RPM1 growth medium supplemented with 10% heat-inactivated FBS and 1% penicillin/streptomycin. Cells were seeded into 12- or 6-well plates at 2×10^5 cells/ml and treated with phorbol 12-myristate 13-acetate (PMA) to induce differentiation to macrophages. Cells were cultured for 24 hours in complete growth medium without PMA, followed by a 6 hour serum starve prior to polarisation. Cells were polarised to M1 macrophages using 20 ng/ml IFN-γ and 10 pg/ml LPS (from E, coli) for 6 or 24 hours and collected for RNA isolation or flow cytometry. Following treatments, human and murine macrophages were collected in Trizol and RNA isolated using the Trizol plus RNA isolation kit (Invitrogen. Thermo Fisher) according to the manufacturer's instructions. RNA was reverse transcribed to cDNA using GoScript reverse transcriptase (Promega). Quantitative real-time PCR was carried out using 2×Takyon SYBR Green mastermix and a CFX Connect thermocycler. Primers for ERα and ERβ were used to explore changes in ER expression after treatment of MEK and MDF with E2 and E4. To investigate the effect of E2 and E4 on MEK differentiation and the expression of ECM proteins by MDF, primers for. Snail, keratin-1 and fibronectin, collagen I. MMP-2 and MMP-9 were used. Primers for INOS. IL-1B and Tnf-α or Ccl17 were used to assess M1/M2 polarisation status. Primers for GAPDH were used to normalise data. Relative gene expression was set to vehicle controls or M0 expression unless otherwise stated. The relative anti-inflammatory effects of both E2 and E4 were evaluated in vitro. First, the human monocyte THP1 cell line was used to screen several concentrations of E2 and E4. THP1 cells were differentiated to a macrophage phenotype by treatment with PMA, followed by polarisation to an M1 or M2 phenotype (FIG. 23). Successful polarisation was confirmed by profiling the expression of the M1 marker (TNF-α) and the M2 marker (CCL17). The effects of co-treatment with a range of E2 or E4 concentrations were evaluated.

Assay [5] concerns MMP2. The assay can be described thus: Zymography of supernatants from human dermal fibroblasts. The assay is classed as cell-based. The following applies: HDFs from 3 independent donors, versus control. The method, then: In vitro cultured murine fibroblasts were treated with either E2, E4, DPN or PPT at 10^−7M. As previously reported. […] Next, zymography was performed on cell supernatants from HDFs treated with either E2 or E4, to evaluate the effect of E2 and E4 on cell-derived MMP activity. […] The magnitude of the effect (and statistical significance) was greater in cells treated with E4. No MMP9 activity was detected in any treatment group. Finally, we explored the effect of E2 and E4 on murine fibroblast expression of extracellular matrix genes, specifically collagen 1 (Colal) and fibronectin (Fn1) (FIG. 20).

Consider `C[C@]12CC[C@@H]3c4ccc(O)cc4CC[C@H]3[C@@H]1CC[C@@H]2O` [Formulation E2, 17β-estradiol, reference compound], for which the scratch closure entry in assay [1] is on record as “significantly increased scratch closure compared to vehicle control treatment”. Also, in assay [2], the scratch wound closure entry is reported as “strong trend to faster wound closure”. Moreover, in assay [3], the “expression of differentiation marker Keratin 1 (Krt1)” value is “trend towards downregulation”; the “expression of EMT marker Snail” value is on record as “statistically significant induction”; the “expression of ERα and ERβ” value was “strong trend towards induction of both ERα and ERβ”. Besides, in assay [4], the “expression of Tnf-α (M1 marker)” value is on record as “strong trend towards reduced expression of Tnf-α in M1 polarised cells” and the “expression of CCL17 (M2 marker)” value was “increased expression of CCL 17 in M2 polarised cells”. Further, the “MMP2 activity in cell supernatants” value in assay [5] was “significantly reduced MMP2 activity versus control”.

For the compound `C[C@]12CC[C@@H]3c4ccc(O)cc4CC[C@H]3[C@@H]1[C@@H](O)[C@@H](O)[C@@H]2O` [Formulation E4, 1,3,5 (10)-estratrien-3,15alpha, 16alpha, 17beta-tetrol], the scratch closure result in assay [1] is recorded as “significantly increased scratch closure compared to vehicle control treatment”. Further, the scratch wound closure entry in assay [2] is “strong trend to faster wound closure”. For the same compound, in assay [3], the “expression of differentiation marker Keratin 1 (Krt1)” value is reported as “trend towards downregulation”; the “expression of EMT marker Snail” value was “statistically significant induction”; the “expression of ERα and ERβ” value is “strong trend towards increased expression of both ERα and ERβ”. In assay [4], the “expression of Tnf-α (M1 marker)” value is on record as “strong trend towards reduced expression of Tnf-α in M1 polarised cells” and the “expression of CCL17 (M2 marker)” value is “increased expression of CCL 17 in M2 polarised cells”. Further, the “MMP2 activity in cell supernatants” value in assay [5] is listed as “significantly reduced MMP2 activity versus control”.
